Patent US8232248B2, “Treatment of rheumatoid arthritis with mammal beta defensins” (Novozymes Adenium Biotech A/S, priority 2008, dated 2012)

Experiments:
PBMC = PBMC viability, Alamar Blue; assay type: cell-based, human; conditions: 40 μg/ml
Experimental: (§1) Peripheral blood was drawn from healthy volunteers (with approval from the relevant ethical committee in Denmark). Heparinized blood was diluted 1/1 v/v with RPMI and were subjected to Ficoll density centrifugation within 2 h of drawing. Plasma was collected from the top from individual donors and was kept on ice until it was used at 2% in the culture medium (autologous culture medium). Isolated PBMC were resuspended in autologous culture medium and seeded in 96-well culture plates with 255.000 cells per well in a total of 200 μl. […] The concentrations used for stimulation were optimized on 3 different donors in initial experiments, for LPS two different concentrations were used to be sure to be on a cytokine level that is possible to modulate. In some experiments PBMC were treated with Dexamethason and Indomethacin alone and together with LPS or LTA as a control on downregulation of inflammatory cytokines. The supernatants were collected after incubation at 37° C. for 24 hours, and stored at −80° C. until cytokine measurement. Viability was measured by Alamar Blue (Biosource, DALL 1100) in all experiments and in some cases also by MTS (Promega) according to manufacturer's instruction and was in some experiments also judged by counting of the cells by a Nucleocounter.

[1] = system: IL-10 production from human peripheral blood mononuclear cells (PBMC); assay: IL-10 production from PBMC stimulated with LPS, LTA or PGN, 24 h, Cytometric Bead Array; assay type: cell-based; conditions: Table 19
Experimental: as §1
(§2) Cytokine production in supernatants was measured by flow cytometry with a human inflammation cytometric bead array (CBA) according to manufacturer's instructions (BD) on a FACSarray flow cytometer. The following cytokines were measured: IL-8, IL-1β, IL-10, TNF, IL-12 p70, IL-6. In some experiments, cytokines were measured by ELISA kits from R&D systems (IL-10, TNF-α, IL-1β) according to the manufacturer' instruction.
(§3) All experiments were performed at least twice, with representative results shown. The data presented are expressed as mean plus/minus standard deviation (SD). […] Differences were considered significant for p<0.05.

[2] = system: IL-1β production from human peripheral blood mononuclear cells (PBMC); assay: IL-1β production from PBMC stimulated with LPS or LTA, 24 h, Cytometric Bead Array; assay type: cell-based; conditions: Table 20
Experimental: as §1, §2, §3

[3] = system: TNF production from human peripheral blood mononuclear cells (PBMC); assay: TNF production from PBMC stimulated with LPS, LTA, PGN or Pam3CSK4, 24 h, Cytometric Bead Array; assay type: cell-based; conditions: Table 18; for TNF: Medium, non-treated 1
Experimental: as §1, §2, §3
Example 3 was carried out essentially as described in Example 2. […]

[4] = test compound 1 μg/ml, Medium, non-treated 0
[5] = test compound 10 μg/ml, Medium, non-treated 0
[6] = test compound 1 μg/ml, LPS 0.6 ng/ml
[7] = test compound 1 μg/ml, LPS 20 ng/ml
[8] = test compound 10 μg/ml, LPS 0.6 ng/ml
[9] = test compound 10 μg/ml, LPS 20 ng/ml

Substance: hBD4 variant: consists of amino acids 3-39 of hBD4, SEQ ID NO:5 (ELDRICGYGTARCRKKCRSQEYRIGRCPNTYACCLRK; hBD-4 variant consisting of amino acids 3-39 of SEQ ID NO4)
- Toxicity to the cells (PBMC): toxic to the cells
- Secretion of IL-10 ([1]; PBMC with LPS): significantly and dose-dependently enhanced
- IL-10 ([1]; test compound 1 μg/ml, LPS 0.6 ng/ml, non-treated 66): 90 pg/mL
- IL-10 [1, 4]: 0 pg/mL
- IL-10 ([1]; test compound 10 μg/ml, LPS 0.6 ng/ml, non-treated 66): 92 pg/mL
- IL-10 [1, 5]: 0 pg/mL
- IL-1β % of control [2, 6]: 39%
- IL-1β ([2]; test compound 1 μg/ml, LPS 0.6 ng/ml, non-treated 741): 286 pg/mL
- IL-1β % of control [2, 7]: 40%
- IL-1β ([2]; test compound 1 μg/ml, LPS 20 ng/ml, non-treated 2544): 1004 pg/mL
- IL-1β [2, 4]: 0 pg/mL
- IL-1β % of control [2, 8]: 22%
- IL-1β ([2]; test compound 10 μg/ml, LPS 0.6 ng/ml, non-treated 741): 163 pg/mL
- IL-1β % of control [2, 9]: 18%
- IL-1β ([2]; test compound 10 μg/ml, LPS 20 ng/ml, non-treated 2544): 463 pg/mL
- IL-1β [2, 5]: 0 pg/mL
- TNF % of control [3, 6]: 64%
- TNF % of control [3, 7]: 36%
- TNF ([3]; test compound 1 μg/ml): 0 pg/mL
- TNF % of control [3, 8]: 29%
- TNF % of control [3, 9]: 6%
- TNF ([3]; test compound 10 μg/ml): 0 pg/mL
